Test results published in PubChem BioAssay AID248 (DTP/NCI, 2004).
Several values for one entry are separate records, joined by “and”; a condition that tells them apart may be missing. Equal values may be shown once. Inconclusive results and toxic doses are left out. No stated cut-off is given here; in the data, active means T/C of 150% or more; inactive means T/C below 125%.

Test system: L1210 leukemia ip in BDF1 mice, survival T/C
Experiment: NCI In Vivo Anticancer Drug Screen. Data for tumor model L1210 Leukemia (intraperitoneal) in B6D2F1 (BDF1) mice
Conditions: endpoint: mean survival time, higher = longer survival
Summary of the method: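 Transplanted-tumor mice were given test agent; controls received vehicle only. Survival readings from the two groups were divided (treated over control).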

[1] = dose: 100.0 mg/kg/injection, schedule: Q04DX003 (ip), vehicle: saline with Tween-80
[2] = dose: 200.0 mg/kg/injection, schedule: Q04DX003 (ip), vehicle: saline with Tween-80
[3] = dose: 400.0 mg/kg/injection, schedule: Q04DX003 (ip), vehicle: saline with Tween-80
[4] = dose: 100.0 mg/kg/injection, schedule: Q01DX009 (ip), vehicle: Klucel (hydroxypropylcellulose) (HPC)
[5] = dose: 200.0 mg/kg/injection, schedule: Q01DX009 (ip), vehicle: Klucel (hydroxypropylcellulose) (HPC)
[6] = dose: 12.5 mg/kg/injection, schedule: Q04DX003 (ip), vehicle: saline
[7] = dose: 25.0 mg/kg/injection, schedule: Q04DX003 (ip), vehicle: saline
[8] = dose: 100.0 mg/kg/injection, schedule: Q04DX003 (ip), vehicle: Klucel (hydroxypropylcellulose) (HPC)
[9] = dose: 200.0 mg/kg/injection, schedule: Q04DX003 (ip), vehicle: Klucel (hydroxypropylcellulose) (HPC)
[10] = dose: 400.0 mg/kg/injection, schedule: Q04DX003 (ip), vehicle: Klucel (hydroxypropylcellulose) (HPC)
[11] = dose: 100.0 mg/kg/injection, schedule: Q04DX002 (ip), vehicle: Klucel (hydroxypropylcellulose) (HPC)
[12] = dose: 200.0 mg/kg/injection, schedule: Q04DX002 (ip), vehicle: Klucel (hydroxypropylcellulose) (HPC)
[13] = dose: 400.0 mg/kg/injection, schedule: Q04DX002 (ip), vehicle: Klucel (hydroxypropylcellulose) (HPC)
[14] = dose: 100.0 mg/kg/injection, schedule: Q04DX003 (ip), vehicle: saline
[15] = dose: 100.0 mg/kg/injection, schedule: Q01DX001 (ip), vehicle: other
[16] = dose: 200.0 mg/kg/injection, schedule: Q01DX001 (ip), vehicle: other
[17] = dose: 100.0 mg/kg/injection, schedule: Q01DX001 (ip), vehicle: Klucel (hydroxypropylcellulose) (HPC)
[18] = dose: 200.0 mg/kg/injection, schedule: Q01DX001 (ip), vehicle: Klucel (hydroxypropylcellulose) (HPC)
[19] = dose: 400.0 mg/kg/injection, schedule: Q01DX001 (ip), vehicle: Klucel (hydroxypropylcellulose) (HPC)
[20] = dose: 50.0 mg/kg/injection, schedule: Q04DX003 (ip), vehicle: saline
[21] = dose: 100.0 mg/kg/injection, schedule: Q01DX009 (ip), vehicle: saline with Tween-80

Measured: T/C

COc1cc(Br)c(C(C)CC(=O)O)cc1OC (stereo not drawn)
inactive: [1] 103 % of control | [2] 98 % of control | [3] 92 % of control

O=c1ccn(CCCc2ccccc2)c(=O)[nH]1
inactive: [4] 94 % of control | [5] 109 % of control | dose: 400.0 mg/kg/injection, schedule: Q01DX009 (ip), vehicle: Klucel (hydroxypropylcellulose) (HPC) 94 % of control

O=[N+]([O-])c1ccc2c(c1)N(CCCN1CCN(CCO)CC1)c1ccccc1S2
inactive: [6] 111 % of control | [7] 122 % of control

C1=CC2CC3(OCCO3)C2C1 (stereo not drawn)
inactive: [1] 95 % of control | [2] 92 % of control | [3] 92 % of control

CC[n+]1ccc(/C=C\c2c(Cl)cccc2Cl)cc1
inactive: dose: 12.5 mg/kg/injection, schedule: Q01DX009 (ip), vehicle: Klucel (hydroxypropylcellulose) (HPC) 100 % of control | dose: 25.0 mg/kg/injection, schedule: Q01DX009 (ip), vehicle: Klucel (hydroxypropylcellulose) (HPC) 100 % of control | [8] 100 % of control | [9] 100 % of control | [10] 112 % of control

CC(=O)Nc1ccc(SS(=O)(=O)c2ccc(NC(C)=O)cc2)cc1
inactive: dose: 100.0 mg/kg/injection, schedule: Q01DX001 (ip), vehicle: saline 95 % of control | dose: 200.0 mg/kg/injection, schedule: Q01DX001 (ip), vehicle: saline 101 % of control | dose: 400.0 mg/kg/injection, schedule: Q01DX001 (ip), vehicle: saline 101 % of control

O=C1OCC/C1=C\OCCc1ccccc1
inactive: [11] 98 % of control | [12] 94 % of control | [13] 94 % of control

OCC1(CO)CCCCO1
inactive: [14] 96 % of control | dose: 200.0 mg/kg/injection, schedule: Q04DX003 (ip), vehicle: saline 95 % of control | dose: 400.0 mg/kg/injection, schedule: Q04DX003 (ip), vehicle: saline 101 % of control

O=C(Nc1ccccc1)NC(C(=O)O)(c1ccccc1)c1ccccc1
inactive: dose: 50.0 mg/kg/injection, schedule: Q01DX001 (ip), vehicle: other 97 % of control | [15] 89 % of control | [16] 92 % of control

O=S(=O)(NO)c1cccc(S(=O)(=O)NO)c1
inactive: dose: 100.0 mg/kg/injection, schedule: Q01DX009 (ip), vehicle: saline 97 % of control | [8] 89 % of control | dose: 200.0 mg/kg/injection, schedule: Q01DX009 (ip), vehicle: saline 87 % of control | [9] 95 % of control | [10] 92 % of control

COc1ccccc1N=Cc1ccccc1O.[Co]
inactive: [15] 94 % of control | [16] 94 % of control | dose: 400.0 mg/kg/injection, schedule: Q01DX001 (ip), vehicle: other 93 % of control

CCOP(=O)(OCC)c1ccccc1Br
inactive: dose: 100.0 mg/kg/injection, schedule: Q01DX001 (ip), vehicle: acetone 89 % of control | dose: 200.0 mg/kg/injection, schedule: Q01DX001 (ip), vehicle: acetone 87 % of control | dose: 400.0 mg/kg/injection, schedule: Q01DX001 (ip), vehicle: acetone 89 % of control

O=C(c1ccccc1)c1nonc1C(=O)c1ccccc1
inactive: dose: 100.0 mg/kg/injection, schedule: Q01DX009 (ip), vehicle: saline sonified 93 % of control | [1] 97 % of control | dose: 200.0 mg/kg/injection, schedule: Q01DX009 (ip), vehicle: saline sonified 90 % of control | [2] 92 % of control | dose: 400.0 mg/kg/injection, schedule: Q01DX009 (ip), vehicle: saline sonified 93 % of control | [3] 97 % of control

CN=C(NC)c1ccc(NC(=O)c2cc(C)cc(C(=O)Nc3ccc(C(=NC)NC)cc3)c2)cc1
inactive: dose: 1.88 mg/kg/injection, schedule: Q01DX Z (ip), vehicle: saline 89 % of control | dose: 3.75 mg/kg/injection, schedule: Q01DX Z (ip), vehicle: saline 91 % of control | dose: 7.5 mg/kg/injection, schedule: Q01DX Z (ip), vehicle: saline 91 % of control | dose: 15.0 mg/kg/injection, schedule: Q01DX Z (ip), vehicle: saline 98 % of control and 107 % of control | dose: 30.0 mg/kg/injection, schedule: Q01DX Z (ip), vehicle: saline 101 % of control

COc1ccc(S(=O)(=O)NC(=O)NCC=C(C)C)cc1
inactive: dose: 50.0 mg/kg/injection, schedule: Q01DX009 (ip), vehicle: Klucel (hydroxypropylcellulose) (HPC) 98 % of control | [4] 98 % of control | [8] 93 % of control | [5] 96 % of control | [9] 103 % of control | [10] 94 % of control

CCCCCCCCCCCCCCCCC/C(CC)=N/Nc1ccc([N+](=O)[O-])cc1[N+](=O)[O-]
inactive: [17] 104 % of control | [18] 106 % of control | [19] 97 % of control

C[N+](C)(C)CCC[N+](C)(C)CCN1C(=O)c2cccc3cccc(c23)C1=O
inactive: dose: 6.25 mg/kg/injection, schedule: Q01DX001 (ip), vehicle: saline 103 % of control | dose: 12.5 mg/kg/injection, schedule: Q01DX001 (ip), vehicle: saline 103 % of control | dose: 25.0 mg/kg/injection, schedule: Q01DX001 (ip), vehicle: saline 103 % of control | dose: 50.0 mg/kg/injection, schedule: Q01DX001 (ip), vehicle: saline 101 % of control

COc1ccc(NC(=O)NCc2ccc(C)cc2)cc1
inactive: [11] 104 % of control | [12] 104 % of control | [13] 96 % of control

CNc1c([N+](=O)[O-])ncn1C
inactive: [6] 98 % of control | [7] 94 % of control | [20] 91 % of control | [14] 97 % of control

COC1OCC(N=[N+]=[N-])C(OC)C1O (stereo not drawn)
inactive: [1] 100 % of control | [2] 100 % of control | [3] 98 % of control

CCc1ccccc1NC(=O)N1CCCCC1C (stereo not drawn)
inactive: [4] 102 % of control | [5] 94 % of control

CCC(C#N)=C1CCCCC1
inactive: dose: 25.0 mg/kg/injection, schedule: Q01DX009 (ip), vehicle: saline with Tween-80 91 % of control | dose: 50.0 mg/kg/injection, schedule: Q01DX009 (ip), vehicle: saline with Tween-80 99 % of control | [21] 97 % of control | [14] 100 % of control

COc1c(CO)c2c(c(OC)c1OC)-c1ccc(OC)c(=O)cc1[C@@H](NC(C)=O)CC2
inactive: dose: 33.0 mg/kg/injection, schedule: Q01DX015 (ip), vehicle: saline 122 % of control

Cc1cc2oc(=O)cc(C)c2c(=O)o1
inactive: dose: 100.0 mg/kg/injection, schedule: Q01DX001 (ip), vehicle: carboxymethylcellulose (CMC) 97 % of control | dose: 200.0 mg/kg/injection, schedule: Q01DX001 (ip), vehicle: carboxymethylcellulose (CMC) 92 % of control

COc1nc2ccccc2nc1N1CC1
inactive: dose: 26.0 mg/kg/injection, schedule: Q01DX009 (ip), vehicle: acetone 103 % of control | dose: 40.0 mg/kg/injection, schedule: Q01DX009 (ip), vehicle: acetone 101 % of control | dose: 60.0 mg/kg/injection, schedule: Q01DX009 (ip), vehicle: acetone 108 % of control | dose: 90.0 mg/kg/injection, schedule: Q01DX009 (ip), vehicle: acetone 101 % of control | dose: 135.0 mg/kg/injection, schedule: Q01DX009 (ip), vehicle: acetone 121 % of control

Cn1cc(NC(=O)c2cc(NC(=O)CN=C(N)N)cn2C)cc1C(=O)NCCC(=N)N
inactive: dose: 6.3 mg/kg/injection, schedule: Q01DX Z (ip), vehicle: saline 88 % of control | dose: 12.5 mg/kg/injection, schedule: Q01DX Z (ip), vehicle: saline 92 % of control

CC1(C)CCO/C(=C\C(=O)N2Cc3cc4ccccc4nc3C2)N1
inactive: [17] 88 % of control | [18] 86 % of control | [19] 90 % of control

CN1CCCN(C)C1c1ccccc1O
inactive: [6] 96 % of control | [7] 106 % of control | [20] 101 % of control

Cc1c2ccccc2c(CSCCC(N)C(=O)O)c2ccccc12 (stereo not drawn)
inactive: [21] 89 % of control | dose: 200.0 mg/kg/injection, schedule: Q01DX009 (ip), vehicle: saline with Tween-80 91 % of control | dose: 400.0 mg/kg/injection, schedule: Q01DX009 (ip), vehicle: saline with Tween-80 110 % of control
